Measurements from ChEMBL document CHEMBL4680162, “Synthesis and pharmacological evaluation of chlorin derivatives for photodynamic therapy of cholangiocarcinoma” (Eur J Med Chem, 2020).
Blank lines part the entries; values can stand above or below the compound they belong to. The source made the active and inactive calls. No cut-off for these calls is given here.

Legend:
[1] = Induction of apoptosis in human QBC939 cells assessed as late apoptotic cells at 2 uM in presence of 2J/cm2 light irradiation measured after 2 hrs by annexin V-FITC and propidium iodide staining based flow cytometric analysis (reference value: 0.01 %); assay type: functional
[2] = Induction of apoptosis in human QBC939 cells assessed as necrotic cells at 2 uM in presence of 2J/cm2 light irradiation measured after 24 hrs by annexin V-FITC and propidium iodide staining based flow cytometric analysis (reference value: 0.02 %); assay type: functional
[3] = Induction of apoptosis in human QBC939 cells assessed as viable cells at 2 uM in presence of 2J/cm2 light irradiation measured after 24 hrs by annexin V-FITC and propidium iodide staining based flow cytometric analysis (reference value: 99.6 %); assay type: functional; conditions: QBC939, light or radiation study, read-out: Activity
[4] = Absorption property of the compound in DMSO assessed as Q band log absorption coefficient by UV-visible spectrophotometric method; assay type: physicochemical
[5] = Induction of apoptosis in human QBC939 cells assessed as viable cells at 2 uM in presence of 2J/cm2 light irradiation measured after 2 hrs by annexin V-FITC and propidium iodide staining based flow cytometric analysis (reference value: 99.6 %); assay type: functional; conditions: QBC939, light or radiation study, read-out: Activity
[6] = Drug localization in mitochondria of human QBC939 cells at 4 uM incubated for 4 hrs in dark by mito-tracker green based confocal microscopic method; assay type: ADME; conditions: qbc939, 4 h
[7] = Phototoxicity in ICR mouse assessed as back skin weight at 1 mg/kg, iv followed by 10 mW/cm2 light irradiation for 10 mins at 1 day after drug challenge and measured after 1 day of light irradiation by H and E staining based microscopic analysis (reference value: 34.3 +/- 2.1 mg); assay type: organism-based; conditions: in vivo, 48 h, time 2 day
[8] = Photodynamic antitumor activity against human QBC939 cells xenografted in BALB/c nude mouse assessed as tumor weight at 1 mg/kg, iv followed by laser light irradiation at 120 J/cm2 measured after 13 days; assay type: functional; conditions: time 13 day
[9] = Induction of apoptosis in human QBC939 cells assessed as early apoptotic cells at 2 uM in presence of 2J/cm2 light irradiation measured after 2 hrs by annexin V-FITC and propidium iodide staining based flow cytometric analysis (reference value: 0.01 %); assay type: functional
[10] = Induction of apoptosis in human QBC939 cells assessed as late apoptotic cells at 2 uM by annexin V-FITC and propidium iodide staining based flow cytometric analysis; assay type: functional
[11] = Emission property of compound in DMSO assessed as Q band emission wavelength by […]; assay type: physicochemical
[12] = Absorption property of the compound in DMF assessed as Q band log absorption coefficient by UV-visible spectrophotometric method; assay type: physicochemical
[13] = Phototoxicity against human QBC939 cells assessed as reduction in cell viability irradiated with 1 J/cm2 of 650 nanometer laser light preincubated for 24 hrs in dark and measured after 24 hrs by MTT assay; assay type: functional, cell-based; conditions: QBC939, light or radiation study
[14] = system: QBC939; test: Photodynamic antitumour activity against human QBC939 cells xenografted in BABL/c nude mouse assessed as increase in apoptotic cells at 1 mg/kg, iv measured after 1 day of light irradiation by TUNEL assay; assay type: functional, organism-based
[15] = Phototoxicity against human QBC939 cells assessed as reduction in cell viability irradiated with 2 J/cm2 of 650 nanometer laser light preincubated for 24 hrs in dark and measured after 24 hrs by MTT assay; assay type: functional, cell-based; conditions: QBC939, light or radiation study
[16] = Dark toxicity in human QBC939 cells assessed as reduction in cell viability incubated under dark for 24 hrs measured after 24 hrs by MTT assay; assay type: cell-based; conditions: read-out: TC50
[17] = Induction of apoptosis in human QBC939 cells assessed as necrotic cells at 2 uM by annexin V-FITC and propidium iodide staining based flow cytometric analysis; assay type: functional
[18] = Phototoxicity against human QBC939 cells assessed as reduction in cell viability irradiated with 4 J/cm2 of 650 nanometer laser light preincubated for 24 hrs in dark and measured after 24 hrs by MTT assay; assay type: functional, cell-based; conditions: QBC939, light or radiation study
[19] = Induction of singlet oxygen generation in DMSO assessed as bleaching rate at 10 uM under 650 nanometer light irradiation; assay type: functional
[20] = Phototoxicity in ICR mouse assessed as pathological changes 1 mg/kg, iv in presence of 10 mW/cm2 light irradiation for 10 mins at 1 day after drug challenge and measured after 1 day of light irradiation by H and E staining based microscopic analysis; assay type: organism-based; conditions: in vivo, 48 h, time 2 day
[21] = system: QBC939; test: Photodynamic antitumor activity against human QBC939 cells xenografted in BALB/c nude mouse assessed as decrease in tumor weight at 1 mg/kg, iv under dark condition measured after 13 days; assay type: functional, organism-based; conditions: time 13.0 day
[22] = Emission property of compound in poly-oxyethylene castor oil and PBS assessed as Q band emission wavelength by […]; assay type: physicochemical; conditions: buffer
[23] = Drug localization in nucleus of human QBC939 cells at 4 uM incubated for 4 hrs in dark by Hoechst 33342 based confocal microscopic method; assay type: ADME, subcellular; conditions: qbc939, 4 h
[24] = Induction of singlet oxygen generation in DMF solution irradiated with 650 nanometer laser light in every 1 min by ESR assay; assay type: functional
[25] = Induction of apoptosis in human QBC939 cells assessed as early apoptotic cells at 2 uM in presence of 2J/cm2 light irradiation measured after 24 hrs by annexin V-FITC and propidium iodide staining based flow cytometric analysis (reference value: 0.01 %); assay type: functional
[26] = Induction of apoptosis in human QBC939 cells assessed as early apoptotic cells at 2 uM by annexin V-FITC and propidium iodide staining based flow cytometric analysis (reference value: 0.01 %); assay type: functional
[27] = Induction of apoptosis in human QBC939 cells assessed as late apoptotic cells at 2 uM in presence of 2J/cm2 light irradiation measured after 24 hrs by annexin V-FITC and propidium iodide staining based flow cytometric analysis (reference value: 0.01 %); assay type: functional
[28] = Drug uptake in nude mouse xenografted with QBC939 cells assessed as drug level in tumor tissue at 1 mg/kg, iv measured after 8 hrs by fluorescence imaging assay; assay type: ADME, organism-based, Neoplasm; conditions: in vivo
[29] = Phototoxicity in ICR mouse assessed as ear weight at 1 mg/kg, iv followed by 10 mW/cm2 light irradiation for 10 mins at 1 day after drug challenge and measured after 1 day of light irradiation by H and E staining based microscopic analysis (reference value: 12.4 +/- 1.5 mg); assay type: organism-based; conditions: in vivo, 48 h, time 2 day
[30] = Drug uptake in human QBC939 cells at 4 uM by fluorescence spectrophotometer analysis; assay type: ADME, cell-based; conditions: qbc939, 4 µM
[31] = Emission property of compound in DMF assessed as Q band emission wavelength by […]; assay type: physicochemical
[32] = Induction of apoptosis in human QBC939 cells assessed as viable cells at 2 uM by annexin V-FITC and propidium iodide staining based flow cytometric analysis (reference value: 99.99 %); assay type: functional; conditions: read-out: Activity
[33] = Absorption property of compound in poly-oxyethylene castor oil and PBS assessed as Q band log absorption coefficient by UV-visible spectrophotometric method; assay type: physicochemical; conditions: buffer
[34] = Absorption property of compound in poly-oxyethylene castor oil and PBS assessed as Q band maximum absorption wavelength by UV-visible spectrophotometric method; assay type: physicochemical; conditions: buffer
[35] = Absorption property of the compound in DMF assessed as Q band maximum absorption wavelength by UV-visible spectrophotometric method; assay type: physicochemical
[36] = Absorption property of the compound in DMSO assessed as Q band maximum absorption wavelength by UV-visible spectrophotometric method; assay type: physicochemical
[37] = Drug uptake in nude mouse xenografted with QBC939 cells assessed as drug level in tumor tissue at 1 mg/kg, iv measured after 24 hrs by fluorescence imaging assay; assay type: ADME, organism-based, Neoplasm; conditions: in vivo
[38] = Drug uptake in mouse assessed as drug level in plasma at 1 mg/kg, iv measured upto 24 hrs by fluorometric method; assay type: ADME, organism-based; conditions: in vivo
[39] = Induction of apoptosis in human QBC939 cells assessed as necrotic cells at 2 uM in presence of 2J/cm2 light irradiation measured after 2 hrs by annexin V-FITC and propidium iodide staining based flow cytometric analysis (reference value: 0.02 %); assay type: functional
[40] = Phototoxicity in ICR mouse assessed as neck skin weight at 1 mg/kg, iv followed by 10 mW/cm2 light irradiation for 10 mins at 1 day after drug challenge and measured after 1 day of light irradiation by H and E staining based microscopic analysis (reference value: 36.5 +/- 2.4 mg); assay type: organism-based; conditions: in vivo, 48 h, time 2 day
[41] = Phototoxicity in ICR mouse assessed as tail weight at 1 mg/kg, iv followed by 10 mW/cm2 light irradiation for 10 mins at 1 day after drug challenge and measured after 1 day of light irradiation by H and E staining based microscopic analysis (reference value: 115.6 +/- 5.6 mg); assay type: organism-based; conditions: in vivo, 48 h, time 2 day
[42] = Drug localization in lysosome of human QBC939 cells at 4 uM incubated for 4 hrs in dark by lyso-tracker blue based confocal microscopic method; assay type: ADME, subcellular; conditions: qbc939, 4 h
[43] = Phototoxicity in ICR mouse assessed as skin erythema at 1 mg/kg, iv followed by 10 mW/cm2 light irradiation for 10 mins at 1 day after drug challenge and measured after 1 day of light irradiation by H and E staining based microscopic analysis; assay type: organism-based; conditions: in vivo, 48 h, time 2 day
[44] = Phototoxicity in ICR mouse assessed as skin swelling at 1 mg/kg, iv followed by 10 mW/cm2 light irradiation for 10 mins at 1 day after drug challenge and measured after 1 day of light irradiation by H and E staining based microscopic analysis; assay type: organism-based; conditions: in vivo, 48 h, time 2 day
[45] = Phototoxicity in ICR mouse assessed as ear swelling at 1 mg/kg, iv followed by 10 mW/cm2 light irradiation for 10 mins at 1 day after drug challenge and measured after 1 day of light irradiation by H and E staining based microscopic analysis; assay type: organism-based; conditions: in vivo, 48 h, time 2 day
[46] = Phototoxicity in ICR mouse assessed as dermal inflammation 1 mg/kg, iv in presence of 10 mW/cm2 light irradiation for 10 mins at 1 day after drug challenge and measured after 1 day of light irradiation by H and E staining based microscopic analysis; assay type: organism-based; conditions: in vivo, 48 h, time 2 day

Activity [4]: 4 | Drug uptake [6]: Active | Activity [11]: 650 nm | Activity [12]: 4.03 | Activity [22]: 655 nm | Drug uptake [23]: Not Active | Drug uptake [28]: Active | Drug uptake [30]: Active | Activity [31]: 652 nm | Activity [33]: 3.34 | Activity [34]: 650 nm | Activity [35]: 652 nm | Activity [36]: 654 nm | Drug uptake [37]: Active | Drug uptake [38]: Active | Drug uptake [42]: Active
Compound: COC(=O)C1(C(=O)NCCO)C2c3nc(c(-c4ccccc4)c4ccc([nH]4)c(-c4ccccc4)c4nc(c(-c5ccccc5)c5ccc([nH]5)c3-c3ccccc3)C=C4)C21 (configuration not stated)
Activity [1]: 4.9% | Activity [2]: 9.7% | viability at 2 µM [3]: 25.6% | viability at 2 µM [5]: 75.9% | Activity [7]: 35.3 mg | Activity [8]: 17% | Activity [9]: 2.1% | Activity [10]: 2.32% | IC50 [13]: 3.41 µM | Activity [14]: Active | IC50 [15]: 1920 nM | CC50 at 48 h [16]: > 8 µM | Activity [17]: 0.96% | IC50 [18]: 1170 nM | Activity [19]: Active | Activity [20]: Non-Toxic | Activity [21]: inactive | Activity [24]: Active | Activity [25]: 19.8% | Activity [26]: 1.65% | Activity [27]: 44.9% | Activity [29]: 13.2 mg | viability at 2 µM [32]: 95.1% | Activity [39]: 17.07% | Activity [40]: 38.1 mg | Activity [41]: 114.9 mg

Compound: Oc1cccc(-c2c3nc(c(-c4cccc(O)c4)c4ccc([nH]4)c(-c4cccc(O)c4)c4nc(c(-c5cccc(O)c5)c5ccc2[nH]5)CC4)C=C3)c1 [TEMOPORFIN]
Activity [43]: Toxic | Activity [44]: Toxic | Activity [7]: 39.2 mg | Activity [8]: 35% | IC50 [13]: 2.96 µM | Activity [14]: Active | IC50 [15]: 1460 nM | CC50 at 48 h [16]: 6.08 µM | IC50 [18]: 630 nM | Activity [21]: inactive | Activity [45]: Toxic | Activity [29]: 15.6 mg | Activity [40]: 42.7 mg | Activity [41]: 120.4 mg | Activity [46]: Toxic
